Laboratory results taken from patent publication US7588931B2, “High arachidonic acid producing strains of Yarrowia lipolytica” (E. I. du Pont de Nemours and Company, priority 2004, dated 2009).
Entries after “also recorded” stand apart in the source; their conditions may differ.

Experiments:
Assay type in all cases: cell-based, Yarrowia lipolytica
[1] = test system: wild type Y. lipolytica strains ATCC #20362 and ATCC #90812; experiment: Sulfonylurea sensitivity screening of wild type strains; details: wild type strains ATCC #20362 and ATCC #90812
From the text: When the amino acid sequences of wild type AHAS Y. lipolytica (GenBank Accession No. XP—501277) and S. cerevisiae (GenBank Accession No. P07342) enzymes were aligned, the Trp amino acid residue at position 586 of the S. cerevisiae enzyme was equivalent to the Trp residue at position 497 of the Y. lipolytica enzyme. It was therefore hypothesized that W497L mutation in the Y. lipolytica enzyme would likely confer sulfonylurea herbicide resistance, if the wild type cells were themselves sensitive to sulfonylurea. Using methodology well known to those of skill in the art, it was determined that sulfonylurea (chlorimuron ethyl) at a concentration of 100 μg/mL in minimal medium was sufficient to inhibit growth of wild type Y. lipolytica strains ATCC #20362 and ATCC #90812.

[2] = test system: β-glucuronidase (GUS) reporter; experiment: Comparative analysis of promoters by histochemical analysis of GUS expression
Procedure: Comparative studies investigating the promoter activities of the TEF, GPD, GPDIN, GPM, GPAT, FBA, FBAIN and YAT1 promoters were performed, by synthesizing constructs comprising each promoter and the E. coli gene encoding β-glucuronidase (GUS) as a reporter gene (Jefferson, R. A. Nature. 14(342):837-838 (1989)). Then, GUS activity was measured by histochemical and fluorometric assays (Jefferson, R. A. Plant Mol. Biol. Reporter 5:387-405 (1987)) and/or by using Real Time PCR for mRNA quantitation.
Yarrowia lipolytica ATCC #76982 strains containing plasmids pY5-30, pYZGDG, pYZGMG, pDMW212 and pDMW214 were grown from single colonies in 3 mL MM at 30° C. to an OD600˜1.0. Then, 100 μl of cells were collected by centrifugation, resuspended in 100 μl of histochemical staining buffer, and incubated at 30° C. Staining buffer was prepared by dissolving 5 mg of 5-bromo-4-chloro-3-indolyl glucuronide (X-Gluc) in 50 μl dimethyl formamide, followed by the addition of 5 mL 50 mM NaPO4, pH 7.0.
In a separate experiment, Y. lipolytica Y2034 strains containing plasmids pY5-30, pYGPAT-GUS, pYAT-GUS and pDMW214 were grown from single colonies in 5 mL SD media at 30° C. for 24 hrs to an OD600˜8.0. Then, 1 mL of cells were collected by centrifugation. The remaining cultures were centrifuged and washed 2× with HGM, resuspended in 5 mL each of HGM and allowed to grow at 30° C. further. […]

[3] = test system: β-glucuronidase (GUS) reporter; experiment: Comparative analysis of promoters by fluorometric assay of GUS expression
Procedure: GUS activity was also assayed by fluorometric determination of the production of 4-methylumbelliferone (4-MU) from the corresponding substrate β-glucuronide (Jefferson, R. A. Plant Mol. Biol. Reporter 5:387-405 (1987)).
Yarrowia lipolytica ATCC #76982 strains containing plasmids pY5-30, PYZGDG, PYZGMG, pDMW212 and pDMW214 were grown from single colonies in 3 mL MM (as described above) at 30° C. to an OD600˜1.0. Then, the 3 mL cultures were each added to a 500 mL flask containing 50 mL MM and grown in a shaking incubator at 30° C. for about 24 hrs. The cells were collected by centrifugation, resuspended in Promega Cell Lysis Buffer and lysed using the BIO 101 Biopulverizer system (Vista, Calif.). After centrifugation, the supernatants were removed and kept on ice.
Similarly, Y. lipolytica strain Y2034 containing plasmids pY5-30, pYAT-GUS, pYGPAT-GUS and pDMW214 constructs, respectively, were grown from single colonies in 10 mL SD medium at 30° C. for 48 hrs to an OD600˜5.0. Two mL of each culture was collected for GUS activity assays, as described below, while 5 mL of each culture was switched into HGM.
Specifically, cells from the 5 mL aliquot were collected by centrifugation, washed once with 5 mL of HGM and resuspended in HGM. The cultures in HGM were then grown in a shaking incubator at 30° C. for 24 hrs. Two mL of each HGM culture were collected for the GUS activity assay, while the remaining culture was allowed to grow for an additional 96 hrs before collecting an additional 2 mL of each culture for the assay.
Each 2 mL culture sample in SD medium was resuspended in 1 mL of 0.5× cell culture lysis reagent (Promega). Resuspended cells were mixed with 0.6 mL of glass beads (0.5 mm diameter) in a 2.0 mL screw cap tube with a rubber O-ring. The cells were then homogenized in a Biospec mini beadbeater (Bartlesville, Okla.) at the highest setting for 90 sec. The homogenization mixtures were centrifuged for 2 min at 14,000 rpm in an Eppendof centrifuge to remove cell debris and beads. The supernatant was used for GUS assay and protein determination.
For each fluorometric assay, 100 μl of extract was added to […] of GUS assay buffer (2 mM 4-methylumbelliferyl-β-D-glucuronide (“MUG”) in extraction buffer) or 200 μl of extract was added to 800 μl of GUS assay buffer. The mixtures were placed at 37° C. Aliquots of 100 μl were taken at 0, 30 and 60 min time points and added to 900 μl of stop buffer (1 M Na2CO3). Each time point was read using a CytoFluor Series 4000 Fluorescence Multi-Well Plate Reader (PerSeptive Biosystems, Framingham, Mass.) set to an excitation wavelength of 360 nm and an emission wavelength of 455 nm. Total protein concentration of each sample was determined using 10 μl of extract and 200 μl of BioRad Bradford reagent or 20 μl of extract and 980 μl of BioRad Bradford reagent (Bradford, M. M. Anal. Biochem. 72:248-254 (1976)). GUS activity was expressed as nmoles of 4-MU per minute per mg of protein.

[4] = test system: β-glucuronidase (GUS) reporter; experiment: Relative promoter activity rank from comparative GUS reporter studies (histochemical, fluorometric and/or Real Time PCR); details: relative to other promoters
Procedure: The activity of GPM is about the same as TEF, while the activity of GPD, FBA, FBAIN, FBAINm, GPDIN, GPAT, YAT1 and EXP1 are all greater than TEF (activity is quantified in a relative manner in the column titled “Activity Rank”, wherein a ‘1’ corresponds to the promoter with lowest activity, while a ‘7’ corresponds to the promoter with highest activity). […] GUS activity in each expressed construct was measured by histochemical and/or fluorometric assays (Jefferson, R. A. Plant Mol. Biol. Reporter 5:387-405 (1987)) and/or by use of Real Time PCR.

Molecule	concentration in minimal medium sufficient to inhibit growth [1] [µg/mL]	promoter activity by histochemical staining ([2]; strain Y2034, 24 hr in SD medium, FIG. 5C)	promoter activity by histochemical staining ([2]; strain Y2034, grown in HGM for 24 hrs)	promoter activity relative to activity in SD medium ([3]; after 120 hrs in HGM) [×]	GUS activity ([3]; strain Y2034, 24 hr, HGM)	GUS activity ([3]; strain Y2034, 48 hr, SD)	GUS activity ([3]; strain Y2034, 120 hr HGM)	increase of promoter activity ([3]; switched from SD medium into HGM and grown for 24 hrs) [fold]	Activity “Rank” [4]
CCOC(=O)c1ccccc1S(=O)(=O)NC(=O)Nc1nc(Cl)cc(OC)n1 [chlorimuron ethyl]	100	–	–	–	–	–	–	–	–
YAT1: Y. lipolytica ammonium transporter promoter, SEQ ID NO:165	–	active; also recorded: stronger than the TEF promoter but significantly weaker than the FBAIN promoter and GPAT promoter	stronger than the GPAT promoter and comparable with the FBAIN promoter	25	19.154 nmoles of 4-MU per minute per mg of protein	0.536 nmoles of 4-MU per minute per mg of protein	13.400 nmoles of 4-MU per minute per mg of protein	~37	6
